From ChEMBL document CHEMBL1127106, “Synthesis and cytotoxic activity of () octadecylphosphodithionyl-1-myo-inositol” (1993)
“And” between values parts separate entries of the source, which are not always exact repeats. Equal values may be shown once.

Key:
Format in all cases: functional, Homo sapiens
K562 [1] = test: Cytotoxic activity on K-562 erythroleukemia cell line suspension in 5% foetal calf serum (FCS) at 10e-6 M concentration after 1 hr
K562 [2] = test: Cytotoxic activity on K-562 erythroleukemia cell line suspension in 5% foetal calf serum (FCS) at 10e-5 M concentration after 1 hr
K562 [3] = test: Cytotoxic activity on K-562 erythroleukemia cell line suspension in 5% foetal calf serum (FCS) at 10e-4 M concentration after 2 hr
K562 [4] = test: Cytotoxic activity on K-562 erythroleukemia cell line suspension in 5% foetal calf serum (FCS) at 10e-4 M concentration after 1 hr
K562 [5] = test: Cytotoxic activity on K-562 erythroleukemia cell line suspension in 5% foetal calf serum (FCS) at 4*10e-4 M concentration after 1 hr
K562 [6] = test: Cytotoxic activity on K-562 erythroleukemia cell line suspension in 5% foetal calf serum (FCS) at 4*10e-5 M concentration after 1 hr
K562 [7] = test: Cytotoxic activity on K-562 erythroleukemia cell line suspension in 5% foetal calf serum (FCS) at 4*10e-5 M concentration after 2 hr
K562 [8] = test: Cytotoxic activity on K-562 erythroleukemia cell line suspension in 5% foetal calf serum (FCS) at 10e-5 M concentration after 2 hr
K562 [9] = test: Cytotoxic activity on K-562 erythroleukemia cell line suspension in 5% foetal calf serum (FCS) at 10e-3 M concentration after 1 hr
K562 [10] = test: Cytotoxic activity on K-562 erythroleukemia cell line suspension in 5% foetal calf serum (FCS) at 4*10e-6 M concentration after 1 hr
K562 [11] = test: Cytotoxic activity on K-562 erythroleukemia cell line suspension in 5% foetal calf serum (FCS) at 4*10e-6 M concentration after 2 hr
K562 [12] = test: Cytotoxic activity on K-562 erythroleukemia cell line suspension in 5% foetal calf serum (FCS) at 10e-6 M concentration after 2 hr
K562 [13] = test: Cytotoxic activity on K-562 erythroleukemia cell line suspension in 5% foetal calf serum (FCS) at 4*10e-4 M concentration after 24 hr
K562 [14] = test: Cytotoxic activity on K-562 erythroleukemia cell line suspension in 5% foetal calf serum (FCS) at 4*10e-6 M concentration after 24 hr
K562 [15] = test: Cytotoxic activity on K-562 erythroleukemia cell line suspension in 5% foetal calf serum (FCS) at 4*10e-5 M concentration after 24 hr
K562 [16] = test: Cytotoxic activity on K-562 erythroleukemia cell line suspension in 5% foetal calf serum (FCS) at 10e-3 M concentration after 24 hr
K562 [17] = test: Cytotoxic activity on K-562 erythroleukemia cell line suspension in 5% foetal calf serum (FCS) at 10e-5 M concentration after 24 hr
K562 [18] = test: Cytotoxic activity on K-562 erythroleukemia cell line suspension in 5% foetal calf serum (FCS) at 10e-3 M concentration after 2 hr
K562 [19] = test: Cytotoxic activity on K-562 erythroleukemia cell line suspension in 5% foetal calf serum (FCS) at 10e-4 M concentration after 24 hr
K562 [20] = test: Cytotoxic activity on K-562 erythroleukemia cell line suspension in 5% foetal calf serum (FCS) at 10e-6 M concentration after 24 hr

Molecule `CCCCCCCCCCCCCCCCCCSP(O)(=S)O[C@@H]1[C@@H](O)[C@H](O)[C@@H](O)[C@H](O)[C@@H]1O` (stereo not given in full) has a Dead cells (K562 [1]) of 14%, a Dead cells (K562 [2]) of 13.3% and a Dead cells (K562 [3]) of 22.7%. The Dead cells (K562 [4]) was 18.4%, the Dead cells (K562 [5]) was 48.2% and the Dead cells (K562 [6]) was 15.5%. For the same molecule, the Dead cells (K562 [7]) was 17%, the Dead cells (K562 [8]) was 16.6% and the Dead cells (K562 [9]) was 48.9%. For the same molecule, the Dead cells (K562 [10]) was 13.3%, the Dead cells (K562 [11]) was 16.8% and 45.9% and the Dead cells (K562 [12]) was 18.2%. It also gave a Dead cells (K562 [13]) of 71.1%, a Dead cells (K562 [14]) of 22.5% and a Dead cells (K562 [15]) of 24.4%. It also gave a Dead cells (K562 [16]) of 96.2%, a Dead cells (K562 [17]) of 23.3% and a Dead cells (K562 [18]) of 52.52%. The Dead cells (K562 [19]) was 40% and the Dead cells (K562 [20]) was 27.2%.
